ChEMBL document CHEMBL1201862, “PubChem BioAssay data set” (2004)
Active and inactive are the calls of the source.

Columns and labels:
[1] = biological target: T1, Hexokinase HKDC1 (Homo sapiens, UniProt Q2TB90); assay: SAR analysis of small molecule inhibitors of hexokinase domain containing I (HKDC1). [Related pubchem assays (depositor defined):AID493160, AID493190]; assay type: functional
T1 sequence (Q2TB90 whole entry): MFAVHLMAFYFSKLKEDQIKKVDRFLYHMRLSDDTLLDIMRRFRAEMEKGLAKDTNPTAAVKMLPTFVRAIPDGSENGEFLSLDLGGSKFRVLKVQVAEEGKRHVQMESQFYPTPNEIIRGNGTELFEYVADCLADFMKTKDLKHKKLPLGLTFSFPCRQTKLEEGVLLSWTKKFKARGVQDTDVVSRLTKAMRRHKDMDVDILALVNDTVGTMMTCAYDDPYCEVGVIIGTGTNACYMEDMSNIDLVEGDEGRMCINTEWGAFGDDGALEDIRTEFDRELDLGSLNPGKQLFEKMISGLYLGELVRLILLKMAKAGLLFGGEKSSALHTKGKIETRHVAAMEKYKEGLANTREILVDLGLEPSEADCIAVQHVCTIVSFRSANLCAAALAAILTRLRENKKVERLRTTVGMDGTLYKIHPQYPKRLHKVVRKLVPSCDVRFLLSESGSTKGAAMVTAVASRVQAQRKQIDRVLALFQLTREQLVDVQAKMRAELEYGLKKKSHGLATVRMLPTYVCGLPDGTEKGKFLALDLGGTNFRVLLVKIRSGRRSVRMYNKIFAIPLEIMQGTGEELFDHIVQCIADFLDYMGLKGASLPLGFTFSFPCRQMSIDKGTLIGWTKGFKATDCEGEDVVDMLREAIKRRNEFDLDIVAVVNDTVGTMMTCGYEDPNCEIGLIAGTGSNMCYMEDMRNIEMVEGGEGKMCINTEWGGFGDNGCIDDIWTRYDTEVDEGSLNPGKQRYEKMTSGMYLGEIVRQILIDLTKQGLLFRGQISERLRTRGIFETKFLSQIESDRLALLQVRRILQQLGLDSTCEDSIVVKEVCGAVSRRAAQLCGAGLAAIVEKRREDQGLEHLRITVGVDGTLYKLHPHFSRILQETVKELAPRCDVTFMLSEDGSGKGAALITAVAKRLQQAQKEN

[2] = biological target: T2, Hexokinase-1 (Homo sapiens, UniProt P19367); assay: SAR analysis of small molecule inhibitors of hexokinase domain containing I (HKDC1) in the hexokinase 1 selectivity assay. [Related pubchem assays (depositor defined):AID493160, AID493190]; assay type: functional
T2 sequence (P19367 whole entry): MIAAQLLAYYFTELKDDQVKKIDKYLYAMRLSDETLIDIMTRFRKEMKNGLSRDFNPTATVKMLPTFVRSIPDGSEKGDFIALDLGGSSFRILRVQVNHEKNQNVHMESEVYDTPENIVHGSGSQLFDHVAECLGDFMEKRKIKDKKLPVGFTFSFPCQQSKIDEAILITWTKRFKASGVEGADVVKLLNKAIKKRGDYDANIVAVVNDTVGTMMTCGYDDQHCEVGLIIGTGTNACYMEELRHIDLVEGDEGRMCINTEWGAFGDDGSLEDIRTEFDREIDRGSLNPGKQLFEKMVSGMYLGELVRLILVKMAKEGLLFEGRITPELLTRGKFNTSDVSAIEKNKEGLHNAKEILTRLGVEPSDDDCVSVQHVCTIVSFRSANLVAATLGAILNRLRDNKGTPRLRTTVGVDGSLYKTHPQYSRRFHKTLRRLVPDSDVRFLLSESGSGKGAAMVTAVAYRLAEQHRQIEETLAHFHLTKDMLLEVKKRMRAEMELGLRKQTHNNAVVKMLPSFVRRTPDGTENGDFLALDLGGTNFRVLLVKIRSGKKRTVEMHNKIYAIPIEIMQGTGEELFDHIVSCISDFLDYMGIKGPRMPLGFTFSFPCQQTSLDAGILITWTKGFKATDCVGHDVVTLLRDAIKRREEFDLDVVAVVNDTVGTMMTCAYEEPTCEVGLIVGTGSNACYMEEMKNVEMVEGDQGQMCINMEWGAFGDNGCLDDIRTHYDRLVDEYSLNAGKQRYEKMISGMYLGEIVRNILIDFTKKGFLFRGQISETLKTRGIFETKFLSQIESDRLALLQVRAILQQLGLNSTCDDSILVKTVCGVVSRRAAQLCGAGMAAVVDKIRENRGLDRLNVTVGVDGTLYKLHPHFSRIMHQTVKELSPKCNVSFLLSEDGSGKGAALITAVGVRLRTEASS

[3] = biological target: T3, Sentrin-specific protease 7 (Homo sapiens, UniProt Q9BQF6); assay: SENP7 protease inhibitors, SAR follow-up, biochemical, luminescence, set 2 (AID 588600); assay type: functional
T3 sequence (Q9BQF6 whole entry): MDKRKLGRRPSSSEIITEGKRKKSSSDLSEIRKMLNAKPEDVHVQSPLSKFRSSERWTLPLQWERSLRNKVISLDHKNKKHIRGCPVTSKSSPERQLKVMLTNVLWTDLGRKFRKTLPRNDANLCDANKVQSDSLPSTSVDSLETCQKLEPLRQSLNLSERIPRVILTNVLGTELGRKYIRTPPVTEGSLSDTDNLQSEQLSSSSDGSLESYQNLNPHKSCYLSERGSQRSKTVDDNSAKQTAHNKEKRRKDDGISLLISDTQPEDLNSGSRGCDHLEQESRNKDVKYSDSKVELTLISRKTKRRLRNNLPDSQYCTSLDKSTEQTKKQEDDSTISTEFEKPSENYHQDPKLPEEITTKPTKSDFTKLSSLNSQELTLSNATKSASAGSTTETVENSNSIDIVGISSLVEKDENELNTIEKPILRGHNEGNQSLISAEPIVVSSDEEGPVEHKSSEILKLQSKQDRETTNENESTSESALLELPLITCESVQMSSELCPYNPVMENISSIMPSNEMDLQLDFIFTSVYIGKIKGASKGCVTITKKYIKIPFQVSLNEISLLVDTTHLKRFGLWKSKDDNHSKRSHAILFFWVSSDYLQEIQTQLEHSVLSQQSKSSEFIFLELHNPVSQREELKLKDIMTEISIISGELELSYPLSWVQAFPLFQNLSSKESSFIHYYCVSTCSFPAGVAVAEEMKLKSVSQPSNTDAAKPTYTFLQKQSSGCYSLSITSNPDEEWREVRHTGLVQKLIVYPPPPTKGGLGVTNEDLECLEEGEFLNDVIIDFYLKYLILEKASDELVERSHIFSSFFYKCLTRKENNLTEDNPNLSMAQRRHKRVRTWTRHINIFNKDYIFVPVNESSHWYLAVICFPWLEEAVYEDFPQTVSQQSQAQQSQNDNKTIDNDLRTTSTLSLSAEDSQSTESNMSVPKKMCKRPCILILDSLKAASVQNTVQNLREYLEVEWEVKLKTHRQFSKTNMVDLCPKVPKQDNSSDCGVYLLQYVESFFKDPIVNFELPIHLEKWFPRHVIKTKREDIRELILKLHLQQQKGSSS

[4] = biological target: T4, Caspase-3 (Homo sapiens, UniProt P42574); assay: caspase-3 inhibitors as off-family protease, SAR follow-up, selectivity assay for SENP protease inhibitor project, biochemical, luminescence, set 2 (AID 588599); assay type: functional
T4 sequence (P42574 whole entry): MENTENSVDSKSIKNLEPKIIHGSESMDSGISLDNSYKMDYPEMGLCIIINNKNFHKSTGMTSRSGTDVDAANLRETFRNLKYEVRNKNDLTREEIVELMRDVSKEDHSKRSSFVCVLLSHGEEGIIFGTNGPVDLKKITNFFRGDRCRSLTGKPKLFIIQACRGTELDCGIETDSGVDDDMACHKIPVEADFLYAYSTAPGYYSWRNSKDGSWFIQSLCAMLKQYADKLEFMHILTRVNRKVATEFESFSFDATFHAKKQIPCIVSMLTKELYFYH

[5] = biological target: T5, Sentrin-specific protease 6 (Homo sapiens, UniProt Q9GZR1); assay: SENP6 protease inhibitors, SAR follow-up, biochemical, luminescence, set 2 (AID 588598); assay type: functional
T5 sequence (Q9GZR1 whole entry): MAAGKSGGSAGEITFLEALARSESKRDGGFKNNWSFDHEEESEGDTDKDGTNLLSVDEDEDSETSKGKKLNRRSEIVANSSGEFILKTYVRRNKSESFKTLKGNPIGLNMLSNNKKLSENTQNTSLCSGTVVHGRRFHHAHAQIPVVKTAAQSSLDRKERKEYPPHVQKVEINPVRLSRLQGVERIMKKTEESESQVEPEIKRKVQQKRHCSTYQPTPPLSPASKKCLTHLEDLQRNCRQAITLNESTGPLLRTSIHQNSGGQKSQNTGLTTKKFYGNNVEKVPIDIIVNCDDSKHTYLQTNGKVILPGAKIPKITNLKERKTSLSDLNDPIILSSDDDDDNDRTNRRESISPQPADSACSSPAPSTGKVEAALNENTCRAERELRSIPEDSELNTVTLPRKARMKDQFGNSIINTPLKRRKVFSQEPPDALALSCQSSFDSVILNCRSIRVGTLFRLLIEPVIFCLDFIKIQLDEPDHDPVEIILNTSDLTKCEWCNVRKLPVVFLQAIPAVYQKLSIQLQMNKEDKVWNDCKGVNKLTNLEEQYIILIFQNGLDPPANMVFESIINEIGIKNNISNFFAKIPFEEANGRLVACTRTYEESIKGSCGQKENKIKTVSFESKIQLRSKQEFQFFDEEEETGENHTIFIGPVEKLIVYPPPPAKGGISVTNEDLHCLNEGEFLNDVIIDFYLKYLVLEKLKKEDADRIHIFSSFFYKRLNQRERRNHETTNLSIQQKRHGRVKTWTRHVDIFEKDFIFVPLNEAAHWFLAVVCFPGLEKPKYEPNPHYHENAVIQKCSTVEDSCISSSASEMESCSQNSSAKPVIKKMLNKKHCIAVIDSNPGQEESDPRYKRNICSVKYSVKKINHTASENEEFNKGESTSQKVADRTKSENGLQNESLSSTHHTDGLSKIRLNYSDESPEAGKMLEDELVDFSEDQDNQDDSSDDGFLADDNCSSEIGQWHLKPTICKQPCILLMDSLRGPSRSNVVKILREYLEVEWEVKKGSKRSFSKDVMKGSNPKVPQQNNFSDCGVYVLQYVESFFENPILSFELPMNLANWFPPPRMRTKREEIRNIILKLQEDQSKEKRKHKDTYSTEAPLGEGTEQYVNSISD

[6] = biological target: T6, Sentrin-specific protease 8 (Homo sapiens, UniProt Q96LD8); assay: SENP8 protease inhibitors, SAR follow-up, biochemical, luminescence, set 2 (AID 588601); assay type: functional
T6 sequence (Q96LD8 whole entry): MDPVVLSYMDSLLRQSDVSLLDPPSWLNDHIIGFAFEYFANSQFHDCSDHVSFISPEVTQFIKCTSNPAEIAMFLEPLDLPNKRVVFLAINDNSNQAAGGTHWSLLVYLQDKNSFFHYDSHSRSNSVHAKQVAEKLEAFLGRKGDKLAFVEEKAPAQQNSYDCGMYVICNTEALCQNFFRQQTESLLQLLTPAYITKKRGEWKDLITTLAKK

[7] = system: Candida albicans; assay: fluconazole resistance reversal in C. albicans, dose response, CaCi-2 strain, Alamar Blue, dry powder, set 4 (AID 488943); assay type: functional, organism-based
[8] = system: Candida albicans; assay: growth inhibition of azole-resistant C. albicans, dose response, CaCi-8 strain, Alamar Blue, dry powder, set 2 (AID 488909); assay type: functional, organism-based
[9] = system: Candida albicans; assay: growth inhibition of resistant C. albicans, dose response, CaCi-8 strain, fluconazole, dry powder, set 4 (AID 488950); assay type: functional, organism-based
[10] = biological target: Voltage-gated inwardly rectifying potassium channel KCNH2 (Homo sapiens, UniProt Q12809); settings: Potency;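 also: confirmatory quantitative high-throughput screen measuring inhibition of hERG channel activity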
Sequence of Voltage-gated inwardly rectifying potassium channel KCNH2 (Q12809 whole entry): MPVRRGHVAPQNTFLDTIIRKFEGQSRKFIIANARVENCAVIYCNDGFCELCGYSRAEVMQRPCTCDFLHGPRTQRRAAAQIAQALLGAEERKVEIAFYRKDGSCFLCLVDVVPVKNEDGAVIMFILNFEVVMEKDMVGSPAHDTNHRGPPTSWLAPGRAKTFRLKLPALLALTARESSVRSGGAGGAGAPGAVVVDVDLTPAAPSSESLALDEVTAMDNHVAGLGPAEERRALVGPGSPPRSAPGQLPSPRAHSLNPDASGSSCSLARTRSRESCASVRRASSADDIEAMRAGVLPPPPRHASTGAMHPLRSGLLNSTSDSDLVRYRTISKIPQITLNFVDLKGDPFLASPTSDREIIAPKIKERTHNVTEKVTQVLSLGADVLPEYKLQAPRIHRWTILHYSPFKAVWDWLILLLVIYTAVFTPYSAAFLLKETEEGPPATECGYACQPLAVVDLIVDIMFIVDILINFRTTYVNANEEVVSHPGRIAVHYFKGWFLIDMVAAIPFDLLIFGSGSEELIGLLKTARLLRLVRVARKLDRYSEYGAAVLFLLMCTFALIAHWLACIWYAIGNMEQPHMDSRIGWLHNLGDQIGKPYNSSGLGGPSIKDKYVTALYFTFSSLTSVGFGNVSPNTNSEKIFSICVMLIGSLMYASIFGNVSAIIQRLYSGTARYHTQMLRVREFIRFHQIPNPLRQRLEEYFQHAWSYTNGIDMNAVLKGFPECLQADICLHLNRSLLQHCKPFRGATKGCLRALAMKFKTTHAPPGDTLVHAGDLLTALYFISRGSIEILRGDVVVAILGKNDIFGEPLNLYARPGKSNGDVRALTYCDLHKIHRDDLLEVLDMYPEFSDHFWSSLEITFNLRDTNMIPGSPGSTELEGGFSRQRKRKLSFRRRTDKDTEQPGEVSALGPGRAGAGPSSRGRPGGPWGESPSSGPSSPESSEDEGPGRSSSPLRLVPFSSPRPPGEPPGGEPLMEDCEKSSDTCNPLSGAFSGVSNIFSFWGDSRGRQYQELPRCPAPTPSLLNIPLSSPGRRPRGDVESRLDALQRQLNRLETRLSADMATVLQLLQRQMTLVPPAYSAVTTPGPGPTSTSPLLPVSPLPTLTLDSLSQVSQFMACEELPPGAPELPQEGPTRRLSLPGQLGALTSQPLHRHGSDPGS

Row | IC50 [3] | IC50 [4] | IC50 [5] | SMILES | IC50 [6] | other results
1 | – | – | – | O=c1c2ccccc2nc(/C=C/c2cccnc2)n1Cc1cccc(Cl)c1 | – | IC50 [1]: > 80 µM (inactive); IC50 [2]: > 80 µM (inactive)
2 | > 99 µM (inactive) | > 99 µM (inactive) | > 99 µM (inactive) | COc1ccc(/C=C(/C#N)c2nc(-c3ccccc3C)no2)cc1O | > 99 µM (inactive) | –
3 | > 99 µM (inactive) | > 99 µM (inactive) | > 99 µM (inactive) | Cc1[nH]c2ccccc2c1C(=O)C(=O)NCCn1ccc2ccccc21 | > 99 µM (inactive) | –
4 | – | – | – | Cc1cc(N2CCN(C(=O)c3ccc(Cl)cc3)CC2)c2ccc(F)cc2n1 | – | AC50 [7]: 15.8 µM (active); AC50 [8]: 49.3 µM (active); AC50 [9]: 14.4 µM (active)
5 | – | – | – | Cc1ccccc1N1C(=O)c2cc(S(N)(=O)=O)c(Cl)cc2NC1C (centres undefined) [METOLAZONE] | – | AC50 [10]: 0.112 µM (inconclusive)
